Experimental data taken from patent publication US12263248B2, “Compounds and compositions for intracellular delivery of therapeutic agents” (ModernaTX, Inc., priority 2018, dated 2025).

Legend:
hEPO mRNA [1] = assay: hEPO expression after subcutaneous administration to mice; format: in vivo, female CD-1 mice; conditions: for Novel lipid/MC3 expression ratio, 6 hr. time point, s.c. hEPO 0.5 mpk: relative to MC3; for hEPO expression Lipid/Compound 18 ratio, 6 hr. / hEPO expression Lipid/Compound 18 ratio, AUC: 0.5 mpk
Method: (§1) The effect of the lipids of the disclosure on protein expression upon subcutaneous administration was studied. Formulations containing lipids of the disclosure and an mRNA expressing luciferase or hEPO were administered subcutaneously to female CD-1 mice at 0.5 mpk. Expression levels were obtained via whole body luminescent imaging (BLI) at 3, 6 and 24 hours after injection and expression levels in liver, spleen and at the injection site were evaluated ex vivo after 24 hours. […] See also Tables 35 and 36, and FIGS. 19 and 27.
Table 36 summarizes the hEPO expression levels using various nanoparticle compositions of the disclosure as compared to the hEPO expression level using a formulation containing MC3 or Compound 18, following subcutaneous administration, as described above.

[2] = Encapsulation efficiency of RNA (QUANT-IT RIBOGREEN RNA assay); format: physicochemical
How it was run: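 RiboGreen fluorescence (ex ~480, em ~520 nm) compared between intact samples and Triton X-100-lysed samples after 15 min at 37 °C in TE buffer, pH 7.5. Percent free RNA is the blank-corrected intact/disrupted ratio.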

[3] = Particle size and polydispersity index of nanoparticle compositions (Zetasizer Nano ZS); format: physicochemical
How it was run: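 Nanoparticle compositions are diluted in 1×PBS, then size and polydispersity index are read on a Zetasizer Nano ZS instrument.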

luciferase (Luc) mRNA [4] = assay: Luc expression, whole body bioluminescence after intravenous administration to mice; format: in vivo; conditions: Table 3E; intravenous
How it was run: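 Luc mRNA nanoparticle formulations given intravenously to mice (n=6) at 0.5 mg/kg; whole-body bioluminescence imaged at 3, 6 and 24 h. CD-1 mice received IP D-luciferin (200 μL of 15 mg/mL) 15 min before imaging; total flux quantified by region of interest.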

[5] = Apparent (surface) pKa of the LNP formulation (TNS assay); format: physicochemical; conditions: for pKa: Table 1A
How it was run: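 LNP (0.04 mg/mL mRNA) mixed with TNS reagent in 21 buffers spanning about pH 3-12, in triplicate; fluorescence plotted against pH as sigmoidal curve. Apparent pKa taken as […] curve inflection point; validated in 1× PBS and 20 mM Tris w/8% sucrose.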

[6] = Lipid clearance: lipid level in mouse liver tissue (LC-MS/MS); format: in vivo; conditions: Table 3E, mouse liver
Method: Quantification of Lipid by LC-MS/MS: Liver samples were homogenized following addition of 19 eq. (w/v) of water (DF=20). Protein was precipitated and analyzed against calibration standards prepared in matching blank. Chromatographic separation and quantification was accomplished with a LC-MS/MS System. Samples were injected and separated via HPLC A triple-quadrupole MS/MS system operated in positive ion mode was used for signal detection.

luciferase (Luc) mRNA [7] = assay: Luc expression (total flux) after intramuscular administration; format: in vivo, mice
How it was run: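 Mice given a single intramuscular dose of lipid nanoparticle formulations carrying modified Luc mRNA, alone or with H10 mRNA, at 0.001 or 0.01 mpk total. Luciferase expression recorded as total flux.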

luciferase mRNA = assay: Luciferase expression after subcutaneous administration to mice; format: in vivo, female CD-1 mice; conditions: 0.5 mpk, relative to MC3
Method: as §1
Table 35 summarizes the luciferase expression levels using various nanoparticle compositions of the disclosure, and the luciferase expression levels using various nanoparticle compositions of the disclosure as compared to the luciferase expression level using an MC3 formulation after subcutaneous administration, as described above.

hEPO mRNA [8] = assay: hEPO expression after intramuscular administration to mice; format: in vivo; conditions: Table 3I, hEPO
Method: The expression of hEPO and cytokine induction in mice intravenously administered a nanoparticle composition at a dose of 0.5 mpk were measured at 3, 6, and 24 hours. […] The expression of hEPO in mice intramuscularly administered a nanoparticle composition from Table 1B at a dose of 0.01 mpk were measured at 3, 6, and 24 hours.
(§2) Blood collection and analysis for hEPO. Blood was collected from mice or rats via the tail vein and hEPO concentrations were determined using a hEPO ELISA assay.

hEPO mRNA [9] = assay: hEPO expression after intravenous administration to rats; format: in vivo, rat; conditions: Table 19B
Method: The expression of hEPO and cytokine induction in rats intravenously administered a nanoparticle composition at a dose of 2.0 mpk was measured at 6 h.
(§3) The expression of hEPO in rats intravenously administered a nanoparticle composition at a dose of 0.2 mpk or 2.0 mpk was measured at 6 hours. Table 16 summarize the ratio of hEPO expression levels using various nanoparticle compositions as compared to the hEPO expression level using MC3 formulation and the lipid levels in the liver measured 48 hours after administration, as described above. Tables 17 and 18 summarize the lipid levels in the liver and spleen measured 48 hours after administration of Compounds 28, 33, 53, and 54. Liver and spleen levels represent the average values calculated for 3 rats in each group. As is shown in Tables 17 and 18, less than 10% of Compounds 28, 33, 53, and 54 remained in the liver after 48 hours, while greater than 60% of MC3 remained.
The expression of hEPO induced by intravenous administration to rats of nanoparticle compositions at various doses was measured at 2, 4, 6, 8, 24, and 48 hour time points. FIGS. 3-6 respectively summarize the hEPO expression measured upon intravenous administration of formulations including Compounds 26, 18, 25, and MC3 to rat at various doses. The lipid levels of Compound 26 in the liver after 48 hours were about 19%.
(§4) 005781 The expression of hEPO and lipid levels in the liver and spleen in rats intravenously administered a nanoparticle composition at a dose of 0.2 mpk was measured at various time points. Compounds 18 and 25 were selected for comparison with MC3. Lipids were formulated according to the standard MC3 formulation described above. Rats were administered intravenously a single 0.2 mpk dose and expression monitored at 0.25, 0.5, 1, 2, 4, 8, 24, and 48 hours after administration.
as §2

[10] = Residual lipid levels in rat liver and spleen (UPLC-MS); format: in vivo; conditions: Table 19B, liver, 24 h
Method: At 48 h liver tissue was harvested for lipid quantification. To pre-weighed tissues, Milli-Q water was added (900 μL water per 100 mg tissue). Tissues were homogenized using an Omni probe homogenizer until uniform. 50 μL of samples and matrix calibration standards were aliquoted into a 96-well plate. 50 μL of blank matrix for matrix blanks and control blanks were aliquoted. 400 μL is spiking solution were manually added to all samples except matrix blanks. 400 μL of 50:50 ACN:IPA were manually added to matrix blanks. The plate was covered and the samples vortexed and centrifuged for 5 minutes at >3000 rpm. 200 μL of the samples were transferred into a clean 96-well plate for analysis. Samples were analyzed on a Waters Acquity UPLC using a Higgins Analytical Clipeus C8 column ([…], 30×2.1 mm) and a gradient of either 70-95% or 60-95% (Mobile Phase A: 5 mM ammonium formate in 50:50:1 H2O:MeOH:formic acid; Mobile Phase B: 5 mM ammonium formate in 100:1 MeOH:formic acid) over 1.3 min at 1.2 mL/min (column temperature 55° C.). Detection was based on electrospray ionization (ESI) in positive mode using a Sciex API5500 Mass Spectrometer.
as §3, §4

[11] = Table 1D, for subcutaneous administration, # formulated with hEPO mRNA
[12] = Table 1A, lipid:DSPC:cholesterol:PEG-DMG 50:10:38.5:1.5 mol %
[13] = Table 1E, compositions for subcutaneous administration
[14] = Table 1B, formulated with hEPO mRNA

| Compound | % EE [2, 11] [%] | PDI [3, 11] | Size (nm) [3, 11] [nm] | hEPO expression Lipid/Compound 18 ratio, 6 hr. (hEPO mRNA [1]) | hEPO expression Lipid/Compound 18 ratio, AUC (hEPO mRNA [1]) | EE (%) ([2]; Table 1A) | 6 h BLI Lipid/MC3 (luciferase (Luc) mRNA [4]) | pKa [5] | % Remaining dose at 6 h [6] [%] | % Remaining dose at 24 h [6] [%] | PDI ([3]; Table 1A) | Size (nm) [3, 12] [nm] | also measured |
| --- | --- | --- | --- | --- | --- | --- | --- | --- | --- | --- | --- | --- | --- |
| CCCCCCCCCOC(=O)CCCCCCCN(CCCCCCCC(=O)OC(CCCCCCCC)CCCCCCCC)CCCNC(=N)N [Compound 207, Heptadecan-9-yl 8-((3-guanidinopropyl)(8-(nonyloxy)-8-oxooctyl)amino)octanoate] | 102 | 0.22 | 81.4 |  |  |  |  |  |  |  |  |  | Novel lipid/MC3 expression ratio, 6 hr. time point, s.c. hEPO 0.5 mpk (hEPO mRNA [1]): 0 |
| CCCCCCCCCOC(=O)C(C)CCCCCCN(CCO)CCCCCCCC(=O)OC(CCCCCCCC)CCCCCCCC (stereo not drawn) [Compound 164, Nonyl 8-((8-(heptadecan-9-yloxy)-8-oxooctyl)(2-hydroxyethyl)amino)-2-methyloctanoate] | 94.1 | 0.08 | 75.7 | 0.50 | 0.56 | 91.2 | 1.24 | 6.39 | 39.0 | 26.2 | 0.13 | 84.5 |  |
| CCCCCCCCCOC(=O)C(C)CCCCCCN(CCO)CCCCCCCOC(=O)C(CCCCCCCC)CCCCCCCC (stereo not drawn) [Compound 163, 7-((2-Hydroxyethyl)(7-methyl-8-(nonyloxy)-8-oxooctyl)amino)heptyl 2-octyldecanoate] | 92.8 | 0.10 | 78.0 | 0.99 | 0.96 | 93.2 | 3.45 | 6.41 | 34.8 | 19.4 | 0.10 | 88.3 |  |
| CCCCCCCCCOC(=O)CCCCCCCN(CCCCCCCC(=O)OC(CCCCCCCC)CCCCCCCC)CCCN/C(=N/C#N)N(C)C [Compound 168, Heptadecan-9-yl (Z)-8-((3-(2-cyano-3,3-dimethylguanidino)propyl)(8-(nonyloxy)-8-oxooctyl)amino)octanoate] | 96.1 | 0.07 | 87.4 |  |  | 91.4 |  | 6.74 |  |  | 0.20 | 102.3 | i.m. Lipid/MC3 0.01 mpk, Luc, 6 h (luciferase (Luc) mRNA [7]; Table 3B, i.m., 0.01 mpk, 6 h): 16.0; flux measured at 6 h relative to the MC3 formulation (luciferase (Luc) mRNA [7]; intramuscular administration (i.m.), in words): sixteen; Novel lipid/MC3 expression ratio, 6 hr. time point, s.c. hEPO 0.5 mpk (hEPO mRNA [1]): 2.36; % EE [2, 13]: 95%; Novel lipid/MC3 expression ratio, 6 hr. time point, s.c. Luc 0.5 mpk (luciferase mRNA): 0.58; App. pKa ([5]; Table 3F): 6.90; PDI [3, 13]: 0.08; Size (nm) [3, 13]: 85.0 nm |
| CCCCCCCCCC(=O)OC(C)CCCCCCN(CCO)CCCCCCCC(=O)OC(CCCCCCCC)CCCCCCCC (stereo not drawn) [Compound 98, 8-((8-(Heptadecan-9-yloxy)-8-oxooctyl)(2-hydroxyethyl)amino)octan-2-yl decanoate] | 93.8 | 0.14 | 74.8 | 0.69 | 0.69 | 94.4 | 3.16 | 6.53 | 26.8 | 14.7 |  |  |  |
| CCCCCCCCCC(=O)OC(C)CCCCCCN(CCO)CCCCCCCOC(=O)C(CCCCCCCC)CCCCCCCC (stereo not drawn) [Compound 165, 7-((7-(Decanoyloxy)octyl)(2-hydroxyethyl)amino)heptyl 2-octyldecanoate] | 93.5 | 0.14 | 74.3 | 0.63 | 0.64 | 92.9 | 2.12 | 6.50 | 29.1 | 12.7 | 0.14 | 84.6 |  |
| CCCCCCCCCOC(=O)CCCCCCCN(CCCCCCCC(=O)OC(CCCCCCCC)CCCCCCCC)CCCN/C(=N/[N+](=O)[O-])NC [Compound 200, Heptadecan-9-yl (E)-8-((3-(3-methyl-2-nitroguanidino)propyl)(8-(nonyloxy)-8-oxooctyl)amino)octanoate] |  |  |  |  |  | 97.65 |  |  |  |  | 0.15 | 76.2 | Novel lipid/MC3 expression ratio, 6 hr. time point, i.m. Luc (luciferase (Luc) mRNA [7]; intramuscular, relative to MC3 formulation): 8.11; EE (%) [2, 14]: 97.3%; Lipid/MC3 6 h timepoint (hEPO mRNA [8]): 2.6; Lipid/MC3 AUC (hEPO mRNA [8]): 2.7; AUC (hEPO) (hEPO mRNA [9]): 2.4e+07 pg·h/mL; Lipid/MC3 AUC (hEPO mRNA [9]; relative to MC3): 1.30; [hEPO] (hEPO mRNA [9]; species, dose and time not given): 1.72e+06 pg/mL; % dose remaining, liver, 24 h [10]: 0.36%; PDI [3, 14]: 0.19; Size (nm) [3, 14]: 95.3 nm |
